Test results: US20100196907A1, “MARKERS TO PREDICT AND MONITOR RESPONSE TO AURORA KINASE B INHIBITOR THERAPY” (ABBOTT LABORATORIES, priority 2009, published 2010)
Values belong to the compound of their own block, whether it stands above or below them.

Experiments:
[1] = tested on: SW620 colon carcinoma cells; assay: selection of SW620 cells in 1 μM AZD1152 HQPA; assay type: cell-based, human; conditions: after 5 passages
Procedure: All cells were maintained at 37° C. in 5% CO2. […] Less than 0.01% of cells survived this treatment after 5 passages (data not shown). […] In the drug-resistant SW620 derivative (hereafter referred to as SW620^ABCB1/3), ABCB1, which encodes MDR1, was the most highly overexpressed gene on the array, and was identified by two distinct probe sets (FIG. 1A, inset). […] Among the gene set that encodes known small molecule transporters, ABCB1 and ABCB4 are the only two that show highly differential expression (FIG. 1A). The apparent co-upregulation of ABCB1 and ABCB4 was curious given that these genes lie juxtaposed within a common genomic locus on the long arm of chromosome 7 (7q21.1).

[2] = tested on: SW620^ABCB1/3 xenografts; assay: tumor histone H3 phosphorylation, SW620^ABCB1/3 xenografts; assay type: in vivo, mice
Procedure: (§1) SW620 and SW620^ABCB1/3 cells were washed and allowed to grow in drug-free medium overnight. […] The lysates were then probe-sonicated for 10 seconds then clarified by centrifugation at 15,000 g for 15 minutes at 4° C. After treatment with SDS-sample buffer, protein extracts were resolved on NuPAGE Bis-Tris 4-12% gels (Invitrogen (Carlsbad, Calif.)). Samples were electrotransferred to PVDF membranes (Invitrogen (Carlsbad, Calif.)), incubated with primary antibody overnight, and developed using Pierce Dura-Signal chemiluminescence reagents (Pierce, Rockford, Ill.), or Odyssey infrared imaging system from LI-COR Biosciences (Lincoln, Nebr.). C.B.-17 scid-bg (scid-bg) or C.B.-17 scid (scid) mice were obtained from Charles River Laboratories (Wilmington, Mass., USA) at 5-6 weeks of age and used for studies when greater than 8 weeks of age and/or about 20 grams in size. […] Two bisecting diameters were measured with calipers and tumor volumes were estimated from the formula: (length×width^2)/2. […]

[3] = tested on: SW620^ABCB1/3; assay: colony formation, SW620^ABCB1/3; assay type: cell-based, human
Procedure: (§2) SW620^ABCB1/3 and the respective parental cell lines were washed and 500 cells/well were seeded into six-well plates in drug-free medium. Then, 24 hours later, compounds were diluted in DMEM or RPMI, added to the cells, which were cultured at 37° C. for 7-10 days. Cells were then fixed and stained with 0.2% crystal violet to visualize and count colonies.

[4] = tested on: SW620^ABCB1/3 cells; assay: histone H3 phosphorylation immunoblot, SW620^ABCB1/3; assay type: cell-based, human
Procedure: (§3) SW620 and SW620^ABCB1/3 cells were washed and allowed to grow in drug-free medium overnight. […] The lysates were then probe-sonicated for 10 seconds then clarified by centrifugation at 15,000 g for 15 minutes at 4° C. After treatment with SDS-sample buffer, protein extracts were resolved on NuPAGE Bis-Tris 4-12% gels (Invitrogen (Carlsbad, Calif.)). Samples were electrotransferred to PVDF membranes (Invitrogen (Carlsbad, Calif.)), incubated with primary antibody overnight, and developed using Pierce Dura-Signal chemiluminescence reagents (Pierce, Rockford, Ill.), or Odyssey infrared imaging system from LI-COR Biosciences (Lincoln, Nebr.).

[5] = tested on: SW620 xenografts; assay: tumor histone H3 phosphorylation, SW620 xenografts; assay type: in vivo, mice
Procedure: as §1

[6] = tested on: SW620 cells; assay: histone H3 phosphorylation immunoblot, SW620; assay type: cell-based, human
Procedure: as §3

[7] = tested on: panel of 50 other kinases; conditions: cited from earlier work
[8] = tested on: SW620 tumors; assay: intratumor pharmacokinetics, SW620 xenografts; assay type: in vivo, mice; conditions: single i.p. 100 mg kg^−1
Procedure: (§4) C.B.-17 scid-bg (scid-bg) or C.B.-17 scid (scid) mice were obtained from Charles River Laboratories (Wilmington, Mass., USA) at 5-6 weeks of age and used for studies when greater than 8 weeks of age and/or about 20 grams in size. All animal studies were conducted in a specific pathogen-free environment in accordance with the Internal Institutional Animal Care and Use Committee (IACUC), accredited by the American Association of Laboratory Animal Care under conditions that meet or exceed the standards set by the United States Department of Agriculture Animal Welfare Act, Public Health Service policy on humane care and use of animals and the NIH guide on laboratory animal welfare. Overt signs of dehydration, lack of grooming, lethargy, greater than 15% weight loss as well as tumor volume greater then 20% body weight were used to determine tumor end point. SW620 cell lines were obtained from the ATCC (Manassas, Va.) and cultured according to their recommendations without antibiotics and routinely tested for Mycoplasma and confirmed to be microbe-free by infectious microbe PCR amplification test (IMPACT; Missouri Research Animal Diagnostic Laboratory, Columbia, Mo.) prior to in vivo inoculation. […] Two bisecting diameters were measured with calipers and tumor volumes were estimated from the formula: (length×width^2)/2. […]

[9] = tested on: HCT-15; assay: colony formation, HCT-15; assay type: cell-based, human
[10] = tested on: cell line panel; assay: 7-day colony formation or viability, cell line panel; assay type: cell-based, human
Procedure: as §2

[11] = tested on: SW620^ABCB1/3 tumors; assay: intratumor pharmacokinetics, SW620^ABCB1/3 xenografts; assay type: in vivo, mice
Procedure: as §4

[12] = tested on: SW620^ABCB1/3 cells; assay: intracellular drug concentration by LC-MS; assay type: in vitro ADME, human; conditions: 1 μM for 4 hours
Procedure: SW620 and SW620^ABCB1/3 cells were washed and allowed to grow in drug-free medium overnight. […] Cytosolic drug accumulation was determined by LC-MS analysis. Briefly, cells were rinsed once with PBS and extracted in cell lysis buffer. The medium, PBS wash, and cell lysate were treated with 2 volumes of acidified MeOH. Crude whole-cell lysates were then clarified by centrifugation at 15000 g for 15 minutes at 4° C. yielding an insoluble cell pellet and cytosol. The insoluble cell pellet was diluted 1:10 with 50% acetonitrile and centrifuged at 11,000 g for 5 minutes.

[13] = tested on: bone marrow; conditions: cited from earlier work
[14] = human plasma; cited from earlier work
[15] = tested on: DoHH-2 B-cell lymphoma xenografts; assay: xenograft growth, DoHH-2; assay type: in vivo, mice
[16] = tested on: HCT-15 colon carcinoma xenografts; assay: xenograft growth, HCT-15; assay type: in vivo, mice
[17] = tested on: HCT116; assay: xenograft growth, HCT116; assay type: in vivo, mice
[18] = tested on: AsPC1; assay: colony formation, AsPC1; assay type: cell-based, human

IC50 ([3]; Homo sapiens): 2 µM | period of tumor concentration above threshold [8]: at least 24 hours | IC50 ([9]; Homo sapiens): 1.4 µM | period of tumor concentration above threshold ([11]; SW620^ABCB1/3 tumors, single i.p. 100 mg kg^−1): ~6 h | overall tumor AUC compared to the parental cohort ([11]; single IP administration, 24-hour period post-dose): reduction in the overall tumor AUC | drug in the cytosol compared to parental SW620 cells [12]: Significantly less drug
SMILES: CCN(CCO)CCCOc1ccc2c(Nc3cc(CC(=O)Nc4cccc(F)c4)[nH]n3)ncnc2c1 [AZD1152 HQPA]
cells that survived treatment [1]: Less than 0.01% | inhibition of histone H3 phosphorylation in tumors ([2]; SW620^ABCB1/3 tumors, single dose 100 mg kg^−1 i.p.): transient inhibition | minimum threshold intratumor concentration to inhibit histone H3 phosphorylation ([2]; SW620^ABCB1/3 xenografts, potency x fold loss in 50% (v/v) mouse plasma): 10 µM | intrinsic potency (histone H3 phosphorylation) ([4]; SW620^ABCB1/3): 2 µM | more drug required to inhibit histone H3 phosphorylation than the parental line ([4]; SW620^ABCB1/3 vs parental SW620, 90 minutes): approximately 100 fold | minimum threshold intratumor concentration to inhibit histone H3 phosphorylation ([5]; SW620 xenografts, potency x fold loss in 50% (v/v) mouse plasma): 0.1 µM | inhibition of Aurora B (histone H3 phosphorylation) in tumors ([5]; parental SW620 xenografts, single dose 100 mg kg^−1 i.p.): Sustained inhibition | intrinsic potency (histone H3 phosphorylation) [6]: 0.02 µM | activity against a panel of 50 other kinases [7]: inactive | IC50 ([10]; Homo sapiens, most (sensitive) cell lines of the panel): 0.004 to 0.015 µM

SMILES: CCN(CCCOc1ccc2c(Nc3cc(CC(=O)Nc4cccc(F)c4)n[nH]3)ncnc2c1)CCOP(=O)(O)O [AZD1152, 2-[[3-({4-[(5-{2-[(3-Fluorophenyl)amino]-2-oxoethyl}-1H-pyrazol-3-yl)amino]-quinazolin-7-yl}oxy)propyl](ethyl)amino)ethyl dihydrogen phosphate]
reversibility of myelosuppression ([13]; following cessation of AZD1152 treatment): fully reversible | myelosuppression ([13]; secondary to inhibition of proliferation of the bone marrow): transient myelosuppression | conversion of prodrug to active drug [14]: rapidly converted to the active drug

SMILES: O=C(O)c1ccc(Nc2ncc3c(n2)-c2ccc(Cl)cc2C(c2c(F)cccc2F)=NC3)cc1 [MLN8054, 4-{[9-choloro-7-(2,6-difluorophenyl)-5H-pyrimido[5,4-D][2]benzazepin-2-yl]amino}-benzoic acid]
activity profile in the cell line panel ([10]; sensitive vs ABCB1-overexpressing lines): No apparent loss in potency

SMILES: C/C=C/C[C@@H](C)C(=O)[C@H]1C(=O)N[C@@H](C(C)C)C(=O)N(C)CC(=O)N(C)[C@@H](CC(C)C)C(=O)N[C@@H](C(C)C)C(=O)N(C)[C@@H](CC(C)C)C(=O)N[C@@H](C)C(=O)N[C@H](C)C(=O)N(C)[C@@H](CC(C)C)C(=O)N(C)[C@@H](CC(C)C)C(=O)N(C)[C@@H](C(C)C)C(=O)N1C [PSC-833]
reversal of resistance to AZD1152 HQPA ([4]; 1 μM PSC-833 for 2 hours prior to AZD1152 HQPA): effective in reversing the resistance

SMILES: Cc1cc(Nc2cc(N3CCN(C)CC3)nc(Sc3ccc(NC(=O)C4CC4)cc3)n2)[nH]n1 [VX-680, cyclopropane carboxylic acid {4-[4-(4-methyl-piperazin-1-yl)-6-(5-methyl-2H-pyrazol-3-ylamino)-pyrimidin-2-ylsulphanyl]-phenyl}-amide]
tumor growth inhibition [15]: significant tumor growth inhibition | xenograft growth under treatment [16]: unabated | tumor growth inhibition [17]: significant tumor growth inhibition

SMILES: CC(=O)O[C@H]1C(=O)[C@@]2(C)[C@H]([C@H](OC(=O)c3ccccc3)[C@]3(O)C[C@H](OC(=O)[C@H](O)[C@@H](NC(=O)c4ccccc4)c4ccccc4)C(C)=C1C3(C)C)[C@]1(OC(C)=O)CO[C@@H]1C[C@@H]2O [paclitaxel]
relative sensitivity [3]: relatively insensitive | relative sensitivity [18]: not AsPC1 were relatively insensitive | relative sensitivity [9]: relatively insensitive
